The text below walks through data of patent EP4663632A1, “COMPOUNDS USEFUL FOR THE MODULATION OF THE ACTIVITY OF STING” (Sulis Therapeutics ApS, priority 2024, dated 2025).

In test [1] the target is STING (Homo sapiens, UniProt Q86WV6). The test is described as follows: Western Blot analysis of inhibition of STING activation in HFF-1 cells. The format is cell-based. More on the design: host or cells: HFF-1 human foreskin fibroblasts. The following applies: for STING, TBK1 and IRF1 phosphorylation: 2 h or 5 h; for phosphorylation of STING, IRF1 or TBK1 (agonism): compound as single agent, no activation. As to the method:
To assess whether S1 STING ligands inhibit STING activation, primary human skin fibroblasts (Figure 5) or HFF-1 cells (Figure 6) were treated with various compounds which comprise only an S1 ligand domain and a Linker domain before undergoing Western Blot analysis as described below.
The cells were lysed and analysed on WB. […] The WB membrane was probed for p-STING, STING, p-IRF3, p-TBK1, and Vinculin.
(In general: A western blot detects proteins with antibodies after separation by electrophoresis.)

Test [2] has as its target C-terminal domain (CTD) of human STING (Homo sapiens, UniProt Q86WV6). Briefly: STING binding FP assay III. The following applies: 10 nM STING (FP assay III according to the text); read-out: STING binding FP assay II, IC50. More on the design: recombinant human STING protein (155-379). As to the method:
The interaction between molecules and the C-terminal domain (CTD) of human STING was evaluated using a competition binding assay. In this assay, recombinant human STING protein (155-379) and a STING binding fluorescent probe were employed. Upon binding of the probe to STING, the rotation of the fluorescent probe is slowed due to the larger molecular size of the protein-bound complex. As a result, emitted light retains its plane of polarization, leading to an increase in fluorescence polarization. Molecules competing for the probe binding site displace the probe, which leads to rapid randomization of the polarization plane of the emitted light and a subsequent decrease in measured fluorescence polarization signal. Change in polarization was measured, allowing a comparative evaluation of the binding affinities of different compounds to the target protein.
The assay was performed in 96-well plates (ThermoFisher, cat.# 237108) containing 100µl : 10 µL test compound in 10% DMSO and buffer A (150 mM NaCl, 50 mM HEPES pH 7.5, 1 mM DTT) + 90 µL prepared master mix solution of: 4 nM fluorescein-labelled STING ligand (Probe 1; synthesis described above) in buffer A + 0.055% Tween-20 (v/v) and 35 nM STING in buffer A. Post mixing, plates were agitated at 600rpm and incubated for 20 min at room temperature. Subsequent measurements of the fluorescence polarization signal were made on a BioTek Synergy-H1 plate reader, using a polarization filter; Exc: 485/20 nm, Em: […]) with a gain-setting of 75. IC50 values were determined using a standard non-linear regression four-parameter curve fit in Graphpad Prism.
The procedure for STING binding FP assay III is the same as described for STING binding FP assay I, except for a lower STING concentration. In STING binding FP assay III, a concentration of 10 nM STING in buffer A was used.

Setting [3] is: 5 µM for 15 min prior to 300 nM diABZI.
Setting [4] is: 5 µM for 15 min prior to 8 µg/mL cGAMP.

STING, sequence (Q86WV6 whole entry, the tested form may be a part): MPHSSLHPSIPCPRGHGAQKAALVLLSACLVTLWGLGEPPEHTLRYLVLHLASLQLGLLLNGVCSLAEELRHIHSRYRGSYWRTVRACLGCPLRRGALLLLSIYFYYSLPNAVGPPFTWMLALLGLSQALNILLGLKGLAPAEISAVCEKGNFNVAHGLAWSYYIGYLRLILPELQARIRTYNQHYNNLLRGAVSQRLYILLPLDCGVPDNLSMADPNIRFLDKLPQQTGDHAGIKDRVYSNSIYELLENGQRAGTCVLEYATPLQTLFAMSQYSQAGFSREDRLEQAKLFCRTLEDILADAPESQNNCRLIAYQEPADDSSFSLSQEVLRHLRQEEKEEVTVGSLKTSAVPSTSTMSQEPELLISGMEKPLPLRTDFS
C-terminal domain (CTD) of human STING, sequence (Q86WV6 155-379): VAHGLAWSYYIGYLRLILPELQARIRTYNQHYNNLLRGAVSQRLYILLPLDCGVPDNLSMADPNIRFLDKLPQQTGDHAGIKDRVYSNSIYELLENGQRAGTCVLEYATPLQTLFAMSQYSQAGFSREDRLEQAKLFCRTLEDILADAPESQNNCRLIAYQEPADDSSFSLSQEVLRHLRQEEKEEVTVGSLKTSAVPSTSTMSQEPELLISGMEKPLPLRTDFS

Turning to `CCn1nc(C)cc1C(=O)N=c1n(C)c2cc(C(N)=O)ccc2n1CCC(CCn1c(=NC(=O)c2cc(C)nn2CC)n(C)c2cc(C(N)=O)ccc21)OCC(=O)N1CCOC[C@@H]1c1ccccc1` (stereo partly drawn) [Example A30, 1-(3-{2-[(S)-3-Phenyl-4-morpholinyl]-2-oxoethoxy}-5-{5-carbamoyl-2-[(1-ethyl-3-methyl-5-pyrazolyl)carbonylimino]-3-methyl-2,3-dihydro-1H-1,3-benzimidazol-1-yl}pentyl)-2-[(1-ethyl-3-methyl-5-pyrazolyl)carbonylimino]-3-methyl-2,3-dihydro-1H-1,3-benzimidazole-5-carboxamide], the “STING, TBK1 and IRF1 phosphorylation” value in test [1] (setting [3]) was “lower compared to cells treated with diABZI c3 alone”; in test [1] (setting [4]) it was “lower compared to cells treated with cGAMP alone”. The “phosphorylation of STING, IRF1 or TBK1 (agonism)” value in test [1] was “no phosphorylation of STING, IRF1 or TBK1 was observed”.
As a reminder, the IC50 is the point on the concentration scale where inhibition reaches its midpoint. `CCn1nc(C)cc1C(=O)N=c1n(C)c2cc(C(N)=O)ccc2n1CCC(CCn1c(=NC(=O)c2cc(C)nn2CC)n(C)c2cc(C(N)=O)ccc21)OCC(=O)NCCOCCOCCOCCOCCC(=O)NCCOCCNc1ccc(C(=O)NC2CCC(=O)NC2=O)c(OC)c1` (centres unmarked) [Example 34, N-(2-{2-[4-(N-2,6-Dioxo-3-piperidylcarbamoyl)-3-anisidino]ethoxy}ethyl)15-{[(3-{5-carbamoyl-2-[(1-ethyl-3-methyl-5-pyrazolyl)carbonylimino]-3-methyl-2,3-dihydro-1H-1 ,3-benzimidazol-1-yl}-1-(2-{5-carbamoyl-2-[(1-ethyl-3-methyl-5-pyrazolyl)carbonylimino]-3-methyl-2,3-dihydro-1H-1 ,3-benzimidazol-1-yl}ethyl)propoxy)methyl]carbonylamino}-4,7,10,13-tetraoxapentadecanamide]: the IC50 in test [2] is 3.7 nM.
Same read-out and setting: then `CCn1nc(C)cc1C(=O)Nc1nc2cc(C(N)=O)ccc2n1CCC(CCn1c(NC(=O)c2cc(C)nn2CC)nc2cc(C(N)=O)ccc21)OCC(=O)NCCOCCOCCOCC(=O)N[C@H](C(=O)N1C[C@H](O)C[C@H]1C(=O)NCc1ccc(-c2scnc2C)cc1)C(C)(C)C` [Example 4, N-[(S)-1-{[(2S,4R)-4-Hydroxy-2-({[p-(4-methyl-1,3-thiazol-5-yl)phenyl]methyl}carbamoyl)-1-pyrrolidinyl]carbonyl}-2,2-dimethylpropyl]11-[({3-[5-carbamoyl-2-(1-ethyl-3-methyl-5-pyrazolylcarbonylamino)-1H-1,3-benzimidazol-1-yl]-1-{2-[5-carbamoyl-2-(1-ethyl-3-methyl-5-pyrazolylcarbonylamino)-1H-1,3-benzimidazol-1-yl]ethyl}propoxy}methyl)carbonylamino]-3,6,9-trioxaundecanamide], with 2.2 nM.
On the same count and under the same terms, then `CCn1nc(C)cc1C(=O)N=c1n(C)c2cc(C(N)=O)ccc2n1CCC(CCn1c(=NC(=O)c2cc(C)nn2CC)n(C)c2cc(C(N)=O)ccc21)OCC(=O)NCCOCCOCCOCCOCCC(=O)NCCC1CCN(c2ccc(C(=O)NC3CCC(=O)NC3=O)c(F)c2)CC1` (centres unmarked) [Example 38, N-(2-{1-[4-(N-2,6-Dioxo-3-piperidylcarbamoyl)-3-fluorophenyl]-4-piperidyl}ethyl)15-{[(3-{5-carbamoyl-2-[(1-ethyl-3-methyl-5-pyrazolyl)carbonylimino]-3-methyl-2,3-dihydro-1 H-1 ,3-benzimidazol-1-yl}-1-(2-{5-carbamoyl-2-[(1-ethyl-3-methyl-5-pyrazolyl)carbonylimino]-3-methyl-2,3-dihydro-1 H-1 ,3-benzimidazol-1-yl}ethyl)propoxy)methyl]carbonylamino}-4,7,10,13-tetraoxapentadecanamide], with 2.6 nM; and “N-(2-{1-[4-(N-2,6-Dioxo-3-piperidylcarbamoyl)-3-chlorophenyl]-4-piperidyl}ethyl)15-{[(3-{5-carbamoyl-2-[(1-ethyl-3-methyl-5-pyrazolyl)carbonylimino]-3-methyl-2,3-dihydro-1H-1 ,3-benzimidazol-1-yl}-1-(2-{5-carbamoyl-2-[(1-ethyl-3-methyl-5-pyrazolyl)carbonylimino]-3-methyl-2,3-dihydro-1H-1 ,3-benzimidazol-1-yl}ethyl)propoxy)methyl]carbonylamino}-4,7,10,13-tetraoxapentadecanamide [Example 37]”, with 3.7 nM; and `CCn1nc(C)cc1C(=O)N=c1n(C)c2cc(C(N)=O)ccc2n1CCC(CCn1c(=NC(=O)c2cc(C)nn2CC)n(C)c2cc(C(N)=O)ccc21)OCC(=O)NCCOCCOCCOCCOCCC(=O)N1CCN(C2CCN(c3ccc(C(=O)NC4CCC(=O)NC4=O)c(OC)c3)CC2)CC1` (centres unmarked) [Example 36, N-[15-(4-{1-[4-(N-2,6-Dioxo-3-piperidylcarbamoyl)-3-methoxyphenyl]-4-piperidyl}-1-piperazinyl)-15-oxo-3,6,9,12-tetraoxapentadecyl](3-{5-carbamoyl-2-[(1-ethyl-3-methyl-5-pyrazolyl)carbonylimino]-3-methyl-2,3-dihydro-1H-1 ,3-benzimidazol-1-yl}-1-(2-{5-carbamoyl-2-[(1-ethyl-3-methyl-5-pyrazolyl)carbonylimino]-3-methyl-2,3-dihydro-1 H-1 ,3-benzimidazol-1-yl}ethyl)propoxy)acetamide], with 10 nM.
Turning to `CCn1nc(C)cc1C(=O)N=c1n(C)c2cc(C(N)=O)ccc2n1CCC(CCn1c(=NC(=O)c2cc(C)nn2CC)n(C)c2cc(C(N)=O)ccc21)OCC(=O)N1CCC[C@H]1c1ccccc1` (stereo partly drawn) [Example A25, 1-(3-{2-[(S)-2-Phenyl-1-pyrrolidinyl]-2-oxoethoxy}-5-{5-carbamoyl-2-[(1-ethyl-3-methyl-5-pyrazolyl)carbonylimino]-3-methyl-2,3-dihydro-1H-1,3-benzimidazol-1-yl}pentyl)-2-[(1-ethyl-3-methyl-5-pyrazolyl)carbonylimino]-3-methyl-2,3-dihydro-1H-1,3-benzimidazole-5-carboxamide], the “STING, TBK1 and IRF1 phosphorylation” value in test [1] (setting [3]) is “lower compared to cells treated with diABZI c3 alone”; in test [1] (setting [4]) it was “lower compared to cells treated with cGAMP alone (with the exception of TBK1 in lane A25)”. The “phosphorylation of STING, IRF1 or TBK1 (agonism)” value in test [1] is given as “no phosphorylation of STING, IRF1 or TBK1 was observed”.
`CCn1nc(C)cc1C(=O)N=c1n(C)c2cc(C(N)=O)ccc2n1CCC(CCn1c(=NC(=O)c2cc(C)nn2CC)n(C)c2cc(C(N)=O)ccc21)OCC(=O)NCCOCCOCCOCCOCCC(=O)NCCC1CCN(c2ccc(C(=O)NC3CCC(=O)NC3=O)c(OC)c2)CC1` (centres unmarked) [Example 35, N-(2-{1-[4-(N-2,6-Dioxo-3-piperidylcarbamoyl)-3-methoxyphenyl]-4-piperidyl}ethyl)15-{[(3-{5-carbamoyl-2-[(1-ethyl-3-methyl-5-pyrazolyl)carbonylimino]-3-methyl-2,3-dihydro-1H-1 ,3-benzimidazol-1-yl}-1-(2-{5-carbamoyl-2-[(1-ethyl-3-methyl-5-pyrazolyl)carbonylimino]-3-methyl-2,3-dihydro-1H-1 ,3-benzimidazol-1-yl}ethyl)propoxy)methyl]carbonylamino}-4,7,10,13-tetraoxapentadecanamide]: the IC50 in test [2] came out at 10.3 nM.
On the same count and under the same terms, then `CCn1nc(C)cc1C(=O)N=c1n(C)c2cc(C(N)=O)ccc2n1CCC(CCn1c(=NC(=O)c2cc(C)nn2CC)n(C)c2cc(C(N)=O)ccc21)OCC(=O)NCCOCCOCCOCCOCCOCC(=O)N[C@H]1C[C@@H](C(=O)N[C@@H]2CCCc3ccccc32)N(C(=O)[C@@H](NC(=O)[C@H](C)NC)C2CCCCC2)C1` (some centres unmarked) [Example 13], with 4.1 nM; and `CCn1nc(C)cc1C(=O)N=c1n(C)c2cc(C(N)=O)ccc2n1CCC(CCn1c(=NC(=O)c2cc(C)nn2CC)n(C)c2cc(C(N)=O)ccc21)OCC(=O)NCCOCCOCCOCCOCCC(=O)NCCOCCOCCOCC(=O)N[C@H]1C[C@@H](C(=O)N[C@@H]2CCCc3ccccc32)N(C(=O)[C@@H](NC(=O)[C@H](C)NC)C2CCCCC2)C1` (some centres unmarked) [Example 18], with 3.5 nM.
